Consider four compounds from US9137987B2, “Moderated release aquatic herbicide formulations” (SePro Corporation, priority 2011, dated 2015).

The test system of one data set is curly-leaf pondweed. The experiment in a line: Greenhouse concentration and exposure trial on curly-leaf pondweed. It is filed as in vivo, Potamogeton crispus. An excerpt:
Error bars are +1 standard deviation (n=3).
Relative to control of invasive curly-leaf pondweed (or CLP), greenhouse studies of penoxsulam concentration and exposure requirements to achieve control of this species have documented that exposure periods of 3-7 days to 3-6 ppb penoxsulam can provide effective control. FIG. 10 presents results of a representative greenhouse trial of penoxsulam treatment of CLP. 13-cm diameter pots were filled with potting soil amended with Osmocote slow release fertilizer (14-14-14). Four apical CLP tips, harvested from a culture at the SRTC, were planted into each pot. A one-inch sand cap was placed over the potting soil and submersed into 54 gallon tubs to allow for grow-out. At 19 days after planting, the five tubs were treated with 0, 3, 6, 12, or 24 ppb penoxsulam. Three pots per treatment were pulled out and placed into a common grow-out tank at 1, 3, 7, and 14 days after treatment (DAT). Once the plants were allowed to grow out for 28 DAT the plants were harvested to determine aboveground dry weight (48 hours at 70° C.).

The test system of the next data set is fish. The settings on record: cited from earlier work.
A further data set has as its system hydrilla. The following applies: Hydrilla verticillata (hydrilla), in vivo.
Data set [1] relates to Eurasian watermilfoil. The experiment in a line: 14C-triclopyr uptake study, root exposure. The following applies: root exposure, 200,000 dpm 14C-triclopyr. In kind it is in vivo, Myriophyllum spicatum. Here is the method: Threshold absorption is reached within 12-24 hours for below ground tissue and near-maximum translocation to aboveground tissue is reached within 48 hours.
Prior to the experiment, plants were transplanted into glass jars filled with water plus a diluted growth media (Hoagland's Solution) and an eicosane wax plug was added to separate aboveground and belowground portions of the plant. Plants were allowed to equilibrate in this solution for 5 days. The root zone of each plant was treated with 200,000 dpm of 14C-triclopyr. Plants were then moved into 3 gallon tanks with other treated plants. Treatments were replicated 3 times and harvested at 12, 24, 48, 96, 192 HAT. Upon harvest, plants were separated into aboveground and belowground portions, dried, weighed and biomass recorded.

In data set [2] the test system is Eurasian watermilfoil. The experiment in a line: 14C herbicide uptake study, shoot exposure. In kind it is in vivo, Myriophyllum spicatum. An excerpt:
Plants were allowed to equilibrate overnight prior to treatment. […] Plants were separated into aboveground and belowground segments. […] After drying, plants were weighed and biomass recorded.

Where [3] appears, read: shoot exposure, triclopyr 1,000 ppb, FIG. 1A, hydrilla and Eurasian milfoil not distinguished in text.

“Also recorded” adds a separate entry of the source.

Method for hydrilla: Eurasian watermilfoil or hydrilla apical fragments were collected from infested field sites and grown in topsoil cultures in greenhouse conditions until needed for uptake experiments. For uptake studies, 15 cm apical fragments were planted in glass jars in topsoil with a sand cap. Plants were allowed to grow in 30 L tanks until rooted (˜14 days). Prior to experiments plants were removed from water and agarose gel (1.5%) was added to each sand cap surface in each jar to avoid root exposure. Three plants of each species were then placed in 4 L plastic containers containing 3 L of dechlorinated tap water. Plants were allowed to equilibrate overnight prior to treatment. During the study, plants were maintained at room temperature (25° C.) under grow lights. Six containers were treated for each experiment using the following aboveground (i.e., above gel layer and into shoot section) treatments of ^14C-radiolabeled herbicide: Fluridone—10 ppb, Penoxsulam—10 ppb, Triclopyr—1,000 ppb (10 ppb ^14C, remainder ‘cold’ material). All radiolabeled dosing of 10 ppb equated to 222,000 DPM of 14C herbicide. The selected total herbicide rates corresponded to typical use rates for these three aquatic herbicides. […] After drying, plants were weighed and biomass recorded. Plants were then burned using a biological sample oxidizer and radioactivity quantified using liquid scintillation spectroscopy (LSS). […]

On to `COc1cnc(OC)n2nc(NS(=O)(=O)c3c(OCC(F)F)cccc3C(F)(F)F)nc12` [penoxsulam, 2-(2,2-difluoroethoxy)-6-(trifluoromethyl)-N-(5,8-dimethoxy[1,2,4]triazolo-[1,5c]pyrimidin-2-yl)-benzenesulfonamide], for which the “exposure period providing effective control” value in the data set with curly-leaf pondweed (3-6 ppb penoxsulam) fell in the range of 3 to 7 days. Further, in the data set with curly-leaf pondweed (exposure periods of 3-7 days), the “penoxsulam concentration providing effective control” value is listed as 3-6 ppb.
As for `CCN(CC)CC.O=C(O)COc1nc(Cl)c(Cl)cc1Cl` [Triclopyr triethylamine], in the data set with fish (in vivo), the “toxicity to creatures such as fish versus butoxyethyl ester of triclopyr” value is “substantially less toxic”.
Regarding `CNC.O=C(O)COc1ccc(Cl)cc1Cl` [2,4-d dimethylamine salt], in the data set with fish (US EPA 2,4-D Re-Registration Eligibility Decision 2005), the “toxicity to creatures such as fish versus butoxyethyl ester of 2,4-d” value is “substantially less toxic”.
Consider `O=C(O)COc1nc(Cl)c(Cl)cc1Cl` [triclopyr, 3,5,6-trichloro-2-pyridyloxyacetic acid], for which, in the data set with hydrilla, the “time to maximum uptake” value was not above 96 h. Also, in the data set with Eurasian watermilfoil [1], the “time to near-maximum translocation to aboveground tissue” value is not above 48 h and the “time to threshold uptake in belowground tissue” value lay within 12 to 24 h. Further, the “time to maximum uptake” value with Eurasian watermilfoil [2] (Myriophyllum spicatum (Eurasian watermilfoil), in vivo) was not above 96 h. Further, in the data set on Eurasian watermilfoil [2] (shoot exposure, Eurasian milfoil, FIG. 1B), the “dose-corrected maximum uptake versus fluridone and penoxsulam” value is reported as “Greater dose-corrected uptake; also recorded: much greater on a dose-corrected basis”. In the data set on Eurasian watermilfoil [2] (setting [3]), the “time to threshold levels in aboveground tissues” value lay in the range of 48 to 96 h and the “time to threshold levels in belowground tissues” value lay in the range of 6 to 12 h.
